Measurements published in US20110257145A1, “METHOD OF TREATING NEUROLOGICAL DISEASES” (THE BOARD OF TRUSTEES OF THE UNIVERSITY OF ILLINOIS, priority 2008, published 2011).
Like-named read-outs stand apart in the source and are kept apart here.

Tests used:
[1] = test system: primary cortical neurons; assay: HCA oxidative stress neuroprotection, cortical neurons (MTT); assay type: cell-based, rat; conditions: up to 20 μM, presence of HCA, 48 hours
Method: (§1) Primary neurons and cell culture: Cell cultures were obtained from the cerebral cortex of fetal Sprague-Dawley rats (embryonic day 17), as described previously. All experiments were initiated 24 hours after plating. Under these conditions, the cells are not susceptible to glutamate-mediated excitotoxicity.
Oxidative toxicity and neuron viability assays: For cytotoxicity studies, cells were rinsed with warm phosphate-buffered saline (PBS), then placed in minimum essential medium (Invitrogen, Carlsbad, Calif.) containing glucose (5.5 g L^−1), 10% fetal calf serum, L-glutamine (2 mM), and cysteine (100 μM). Oxidative stress was induced by the addition of the glutamate analogue HCA ([…]) to the media. HCA was diluted from 100-fold concentrated solutions that were adjusted to pH 7.5. In combination with HCA, TSA, SAHA, or the novel PKC-HDAC compounds were added at various concentrations. Viability was assessed after 48 hours by calceinacetoxymethyl ester (AM)/ethidium homodimer-1 staining (live/dead assay; Molecular Probes, Eugene, Oreg., USA) under fluorescence microscopy and the MTT assay method. Each bar represents the mean ±SEM of four replicates.
In this model of neurodegeneration, oxidative stress is induced by the presence of the glutamate analogue homocysteate (HCA) at a concentration of 5 mM, which depletes the cellular antioxidant glutathione through competitive inhibition of cysteine uptake at the level of the plasma membrane cysteine/glutamate antiporter system xc-. […]
(§2) In one embodiment, the present invention relates to a method of treating an individual suffering from a disease or condition wherein activation of PKC and inhibition of HDAC provides a benefit comprising administering a therapeutically effective amount of a compound of structural formula (I) to an individual in need thereof. […] Neuron survival was quantified by MTT assay, a colorimetric assay in which the amount of yellow MTT is reduced to purple formazan by active mitochondrial reductase enzymes in viable cells.

[2] = molecular target: mouse PKCα (Mus musculus, UniProt P20444); assay: PKC binding affinity
Method: ClogP and topological polar surface area (tPSA) values were calculated (Table 1). ClogP values for the tested compounds ranged from 0.92 to 4.67. The tPSA values were in the range of 61.80-90.90. […] The binding affinities of the compounds for mouse PKCα were determined as described previously. The Ki values for each of the compounds 2, 3, 6, 7, and 9-14, and known […] bryostatin 1 and SAHA are listed in Table 1.

[3] = test system: acetylated histone H4 in primary cortical neurons; assay: Western blot of histone H4 acetylation; assay type: cell-based, rat
Method: as §1
Histone precipitation and Western blot analysis: Treated neurons (about 1×10^6) were incubated in hypotonic lysis buffer (1 mL) containing Tris-HCl (pH 8.0, 10 mM), KCl (1 mM), MgCl2 (1.5 mm), DTT (1 mM), aprotinin (1 mM), pepstatin (1 mM), and PMSF (0.4 mM) for 30 minutes, rotating at 4° C. Nuclei were pelleted by centrifugation for 10 minutes at 10,000 rpm (9000 g), resuspended in H2SO4 (0.4N, 200 μL), and rotated for 12 hours at 4° C. Following centrifugation at 13,000 rpm (16,000 g value) for 10 minutes, the supernatant was transferred to anew tube, and the histone proteins were precipitated by adding 100% trichloroacetic acid (TCA: 66 μL) dropwise followed by 30 minutes incubation on ice. Histone proteins were pelleted by centrifugation at 13,000 rpm (16,000 g) for 10 minutes, washed twice with ice-cold acetone, dried at room temperature for 20-40 minutes, and resuspended in H2O ([…]). Total histone proteins (20 μL) were boiled in Laemmli buffer and electrophoresed under reducing conditions on 15% polyacrylamide gel. Histone proteins were transferred to a nitrocellulose membrane (Bio-Rad, Hercules, Calif.). Nonspecific binding was inhibited by incubation in Tris-buffered saline with Tween 20 (TBST: 50 mM Tris-HCl pH 8.0, 0.9% NaCl, and 0.1% Tween 20) containing 5% nonfat dried milk for at least 1.5 hours. Primary antibodies against acetylated histone H4 or total histone H4 (Upstate) were diluted 1:1000 or 1:4000, respectively, in TBST containing 5% milk and incubated with the membrane for 3 hours at room temperature, followed by incubation with anti-rabbit horseradish peroxidase-conjugated secondary antibodies for 2 h at room temperature. Acetyl histone H4 and total histone H4 immunoreactivity was detected according to the enhanced chemiluminescent protocol (Amersham Biosciences, Fairfield, Conn.).
To illustrate the HDAC-inhibitory activity of the present benzolactams, an ability of the compounds to alter histone acetylation levels was examined. FIG. 3 contains Western blot analyses showing the effect of percent benzolactam compounds at 10 μM (FIG. 3A) and 20 μM (FIG. 3B) in the acetylation levels of histone H4. Cultures of primary cortical neurons were treated with the various benzolactam compounds (at 10 μM) for a period of 8 hours, and Western blot analysis then was performed using acetyl-histone H4-specific antibodies (FIG. 3A).

[4] = test system: HEK293 cells stably transfected with human APP; assay: Aβ40 ELISA; assay type: cell-based; conditions: 24 h
Method: (§3) sAPPα and Aβ40 detection: […] cell lines stably transfected with human APP were maintained in Dulbecco's modified Eagle's medium (DMEM) with 10% fetal bovine serum (FBS). Cells were seeded onto 6-well plates, and incubated at 37° C. overnight. Compounds 9-14 were first dissolved in dimethyl sulfoxide (DMSO) as a 10 mM stock and diluted into the respective concentrations with fresh DMEM with 10% FBS. After exposure overnight, the cell medium was replaced by fresh medium containing the PKC agonist. After incubation for 48 hours, the medium was collected, and both the soluble APP (sAPPα) and Aβ40 levels in the medium were determined by using the sAPPα and Aβ40 ELISA kits obtained from Biosource, Camarillo, Calif. according to the manufacturer's instructions.
It is theorized, but not relied upon, that if APP synthesis is held relatively constant, the production of Aβ decreases if more of the APP is processed through the α-secretase pathway. To confirm that treatment with a present benzolactam enhances the α-secretase APP-processing pathway, compounds 9-14 were examined to determine whether the increased levels of sAPPα corresponds to a decrease in the production of Aβ40. The cells were treated for 24 h at concentrations ranging from 0.001 to 10 μM, and Aβ40 levels were measured by Aβ40 ELISA. […] In FIG. 2, the data are presented as in FIG. 1, with “*” and “**” having the same meaning. […] In general, there was good agreement between an ability of a present benzolactam to increase sAPPα and its ability to decrease Aβ40.

[5] = test system: HEK293 cells stably transfected with human APP; assay: sAPPα ELISA; assay type: cell-based
Method: as §3
In FIG. 1, the data are presented as percent of control±SEM.

[6] = test system: primary cortical neurons; assay: neuron viability in the absence of HCA (MTT); assay type: cell-based, rat; conditions: concentration not given
Method: as §1
Oxidative toxicity and neuron viability assays: For cytotoxicity studies, cells were rinsed with warm phosphate-buffered saline (PBS), then placed in minimum essential medium (Invitrogen, Carlsbad, Calif.) containing glucose (5.5 g L^−1), 10% fetal calf serum, L-glutamine (2 mM), and cysteine (100 μM). […] Viability was assessed after 48 hours by calceinacetoxymethyl ester (AM)/ethidium homodimer-1 staining (live/dead assay; Molecular Probes, Eugene, Oreg., USA) under fluorescence microscopy and the MTT assay method. […]
as §2

[7] = test system: AD cells; conditions: cited from earlier work
[8] = test system: AD cells; conditions: cited from earlier work; remark: listed apart in the source
[9] = test system: APP-[V717I] transgenic mice; conditions: in vivo; cited from earlier work
[10] = mouse PKCα, read-out: K1[nm] ± SEM
[11] = concentration not given in the sentence (FIG. 3: 10 and 20 μM)

CC(C)[C@H]1C(=O)N[C@H](CO)Cc2ccc(OC(=O)CCCCC3CCSS3)cc2N1C (stereo partly drawn) [Compound 7, (2S,5S)-1,2,3,4,5,6-Hexahydro-5-(hydroxymethyl)-2-isopropyl-1-methyl-3-oxobenzo[e][1,4]diazocin-9-yl-5-(1,2-dithiolan-3-yl)pentanoate]
neuroprotection [1]: no neuroprotection | Ki [2, 10]: 5.7 ± 1 nM | histone H4 acetylation [3, 11]: failed to induce histone H4 acetylation

CC(=O)SCCCOc1ccc2c(c1)N(C)C(C(C)C)C(=O)NC(CO)C2 (stereo not drawn) [Compound 9, Thioacetic acid S-[3-(5-hydroxymethyl-2-isopropyl-1-methyl-3-oxo-1,2,3,4,5,6-hexahydrobenzole[e][1,4]diazocin-9-yloxy)propyl]ester]
Aβ40 levels ([4]; 10 μM): significant decrease in Aβ40 levels | sAPPα levels ([5]; 10 μm): increase in sAPPα levels | histone H4 acetylation ([3]; 10 μM, 8 hours): less effective at inducing histone H4 acetylation | histone H4 acetylation ([3]; 20 μM): modest acetylation was observed

CC(=O)SCCCCOc1ccc2c(c1)N(C)C(C(C)C)C(=O)NC(CO)C2 (stereo not drawn) [Compound 10, Thioacetic acid S-[4-(5-hydroxymethyl-2-isopropyl-1-methyl-3-oxo-1,2,3,4,5,6-hexahydrobenzo[e][1,4]diazocin-9-yloxy)butyl] ester]
Aβ40 levels ([4]; 10 μM): significant decrease in Aβ40 levels | sAPPα levels ([5]; 1 nM): statistically significant elevation in sAPPα | histone H4 acetylation ([3]; 10 μM, 8 hours): less effective at inducing histone H4 acetylation | histone H4 acetylation ([3]; 20 μM): modest acetylation was observed

CC(C)[C@H]1C(=O)N[C@H](CO)Cc2ccc(O)cc2N1C [Compound 2, 9-Hydroxy-5-hydroxymethyl-2-isopropyl-1-methyl-(2S,5S)-1,4,5,6-tetrahydro-2H-benzo[e][1,4]diazocin-3-one]
Ki [2]: 4840 ± 320 nM

CC(=O)SCCCCCCCOc1ccc2c(c1)N(C)C(C(C)C)C(=O)NC(CO)C2 (stereo not drawn) [Compound 13, Thioacetic acid S-[7-(5-hydroxymethyl-2-isopropyl-1-methyl-3-oxo-1,2,3,4,5,6-hexahydrobenzo[e][1,4]diazocin-9-yloxy)heptyl] ester]
Aβ40 levels ([4]; 1-10 μM): significant decrease in Aβ40 levels | sAPPα levels ([5]; 10 μm): increase in sAPPα levels | Ki [2]: 4.5 ± 0.4 nM

CC(/C=C/C(=O)NO)=C\[C@@H](C)C(=O)c1ccc(N(C)C)cc1 [TSA, trichostatin A]
toxicity in neuron viability measurements [6]: considerable dose dependent toxicity

CC(=O)SCCCCCOc1ccc2c(c1)N(C)C(C(C)C)C(=O)NC(CO)C2 (stereo not drawn) [Compound 11, Thioacetic acid S-[5-(5-hydroxymethyl-2-isopropyl-1-methyl-3-oxo-1,2,3,4,5,6-hexahydrobenzo[e][1,4]diazocin-9-yloxy)pentyl] ester]
Aβ40 levels ([4]; 10 μM): significant decrease in Aβ40 levels | sAPPα levels ([5]; 10 μm): increase in sAPPα levels

CCCCCCCCC#Cc1ccc2c(c1)CC(CO)NC(=O)C(C(C)C)N2C (centres unmarked) [BL, 8-(1-decynyl)benzolactam]
secretion of sAPPα [7]: enhances the secretion of sAPPα | K+ channel defects [8]: reverses | Aβ40 in the brains [9]: decrease | amount of sAPPα in the brains [9]: significantly increase

CC(=O)SCCCCCCOc1ccc2c(c1)N(C)C(C(C)C)C(=O)NC(CO)C2 (stereo not drawn) [Compound 12, Thioacetic acid S-[6-(5-hydroxymethyl-2-isopropyl-1-methyl-3-oxo-1,2,3,4,5,6-hexahydrobenzo[e][1,4]diazocin-9-yloxy)hexyl] ester]
Aβ40 levels ([4]; 10 μM): significant decrease in Aβ40 levels | sAPPα levels ([5]; 1-10 μm): increase in sAPPα levels | Ki [2, 10]: 8.7 ± 0.7 nM

CC(C)[C@H]1C(=O)N[C@H](CO)Cc2ccc(OCCNC(=O)CCCCC3CCSS3)cc2N1C (stereo partly drawn) [Compound 6, 1N-{2-[5-Hydroxymethyl-2-isopropyl-1-methyl-3-oxo-(2S,5S)-1,2,3,4,5,6-hexahydrobenzo[e][1,4]diazocin-9-yloxy]ethyl}-5-(1,2-dithiolan-3-yl)pentanamide]
neuroprotection [1]: no neuroprotection | Ki [2, 10]: 148 ± 18 nM | histone H4 acetylation [3, 11]: failed to induce histone H4 acetylation

CC(=O)SCCCCCCCCOc1ccc2c(c1)N(C)C(C(C)C)C(=O)NC(CO)C2 (stereo not drawn) [Compound 14, Thioacetic acid S-[8-(5-hydroxymethyl-2-isopropyl-1-methyl-3-oxo-1,2,3,4,5,6-hexahydrobenzole[e][1,4]diazocin-9-yloxy)octyl] ester]
Aβ40 levels ([4]; 1-10 μM): significant decrease in Aβ40 levels | sAPPα levels ([5]; 1-10 μm): increase in sAPPα levels

C=CCCCCCOc1ccc2c(c1)N(C)C(C(C)C)C(=O)NC(CO)C2 (centres unmarked) [Compound 3, 9-Hept-6-enyloxy-5-hydroxymethyl-2-isopropyl-1-methyl-1,4,5,6-tetrahydro-2H-benzo[e][1,4]diazocin-3-one]
neuroprotection [1]: no neuroprotection | histone H4 acetylation ([3]; 20 μM): did not increase histone H4 acetylation
